Laboratory results as given in patent US8530421B2, “Isolated polypeptides used for treatment of inflammatory diseases and inhibiting cancer metastasis” (Supadelixir Inc., priority 2009, dated 2013).

Tested on: IgE-mediated immediate hypersensitivity reaction-induced mice
Assay: IgE-mediated immediate hypersensitivity reaction, ear thickness
Format: in vivo, Balb/c mice
Conditions: 100 μg tail vein, then 100 μg intraperitoneally daily from third day; DNFB antigen; 15 days
Description: Anti-allergic activity of the polypeptide according to the present invention was investigated. Balb/c mice (about 6 weeks old) were sensitized by injecting IgE antibody (5 μg) through the tail vain thereof. After 24 hours, the protein solution (100 μl) prepared by dissolving the peptide fragment of SEQ ID NO: 13 (100 μg) in PBS (100 μl) was injected through the tail vain of the sensitized mice. A 0.15% DNFB solution [2,4-d]nitrofluorobenzene in aceton: olive oil (4:1)] as an antigen was applied on each ear of the mice so as to induce IgE-mediated immediate hypersensitivity. In case of the negative control mice, only PBS (100 μl) was injected without treating a 0.15% DNFB solution. In case of the positive control mice, PBS (100 μl) was injected and then a 0.15% DNFB solution was treated. The changes in ear thickness were measured with a digital caliper every hour for 12 hours. Every day from the third day, the peptide fragment of SEQ ID NO: 13 (100 μg) was intraperitoneally injected to the test group mice, while only PBS was intraperitoneally injected to the control group mice. The changes in ear thickness were measured for 15 days.
FIG. 12 is the graph obtained by comparing the ear thickness changes of the test group mice and the positive control mice (increased by treating a 0.15% DNFB solution) with those of the negative control.

SEQ ID NO: 13: Leu-Xaa-Asp with Xaa Ala; CD99L2 fragment 121~123, PBDX(or XG) fragment 27~29 (LAD; listed as Homo sapiens)
ear thickness increments relative to the positive control group: remarkably decreased
